From patent publication US9169237B1, “Antiprotozoal amidine compounds” (Medi Synergics, LLC, priority 2014, dated 2015)

System: T. brucei brucei
Experiment: T. brucei brucei growth inhibition assay
Type: cell-based, Trypanosoma brucei brucei clone 427-221a (bloodstream forms)
Settings: Trypanosoma brucei; bloodstream forms, T. brucei brucei clone 427-221a; 40 hours at 37° C.; 0.5% DMSO; ATP-bioluminescence; read-out: IC50 (μM) (95% Confidence Intervals)
Description: The growth inhibition assay for T. brucei brucei was conducted as described previously by Z. B. Mackey et al (Kenny K. H. Ang, Joseline Ratnam, Jiri Gut, Jennifer Legac, Elizabeth Hansell, Zachary B. Mackey, Katarzyna M. Skrzypczynska, Anjan Debnath, Juan C. Engel, Philip J. Rosenthal, James H. McKerrow, Michelle R. Arkin, Adam R. Renslo (2011) “Mining a Cathepsin Inhibitor Library for New Antiparasitic Drug Leads”, PLoS Neglected Tropical Diseases, 5(5):e1023). Bloodstream forms of the monomorphic T. brucei brucei clone 427-221a were grown in complete HMI-9 medium containing 10% FBS, 10% Serum Plus medium (Sigma Inc., St. Louis, Mo., USA), 50 U/mL penicillin and […] streptomycin (Invitrogen) at 37° C. under a humidified atmosphere and 5% CO2. Inhibitor stocks were prepared in 100% DMSO and screened at […] for percent inhibition values or serially diluted from […] in 10% DMSO for […] determinations. […] of each dilution was added to […] of diluted parasites ([…]) in sterile Greiner 96-well flat white opaque culture plates such that the final DMSO concentration was 0.5%. The 0% inhibition control wells contained 0.5% DMSO while 100% inhibition control wells contained […] thimerosal (Sigma). After compound addition, plates were incubated for 40 hours at 37° C. At the end of the incubation period, […] of CellTiter-GIo™ reagent (Promega Inc., Madison, Wis., USA) was added to each well and plates were placed on an orbital shaker at room temperature for 2 min to induce lysis. After an additional 10 min of incubation without shaking to stabilize the signal, the ATP-bioluminescence of each well was determined using an Analyst HT plate reader (Molecular Devices, Sunnyvale, Calif., USA). Raw values were converted to log 10 and percentage inhibition calculated relative to the controls. IC50 curve fittings were performed with Prism 4 software as above. Pentamidine was used as a comparator in the assay.

| Structure (SMILES) | IC50 |
| --- | --- |
| CC(=N)N(C)CCCC1(c2ccc(F)cc2)OCc2cc(C#N)ccc21 (stereo not drawn) [Example 1, N-{3-[5-cyano-1-(4-fluorophenyl)-1,3-dihydro-2-benzofuran-1-yl]propyl}-N-methyl-ethanimidamide] | 10 µM |
| CN(CCCC1(c2ccc(F)cc2)OCc2cc(C#N)ccc21)C(=N)c1ccccc1 (stereo not drawn) [Example 2, N-{3-[5-cyano-1-(4-fluorophenyl)-1,3-dihydro-2-benzofuran-1-yl]propyl}-N-methyl-phenylmethanimidamide] | 1.1 µM |
| CN(CCCC1(c2ccc(F)cc2)OCc2cc(C#N)ccc21)C1=NCCCC1 (stereo not drawn) [Example 3, 1-(4-fluorophenyl)-1-{3-[methyl(3,4,5,6-tetrahydropyridin-2-yl)amino]propyl}-1,3-dihydro-2-benzo-furan-5-carbonitrile] | 20 µM |
